In ChEMBL document CHEMBL4808242, “Discovery of GNE-502 as an orally bioavailable and potent degrader for estrogen receptor positive breast cancer” (Bioorg Med Chem Lett, 2021):
Values after ≈ are worked out from the molar mass of the structure shown. Active and inactive are the calls of the source. The calls are words filed in the database; no cut-off is given here.

Experiments:
[1] = Distribution coefficient, logD of the compound at pH 7.4; conditions: octanol/water
[2] = target: T1, Estrogen receptor (Homo sapiens) (UniProt P03372); experiment: Induction of ERalpha degradation in human MCF7 cells assessed as maximum degradation by immunofluorescence assay relative to control; format: cell-based
T1 sequence (whole entry): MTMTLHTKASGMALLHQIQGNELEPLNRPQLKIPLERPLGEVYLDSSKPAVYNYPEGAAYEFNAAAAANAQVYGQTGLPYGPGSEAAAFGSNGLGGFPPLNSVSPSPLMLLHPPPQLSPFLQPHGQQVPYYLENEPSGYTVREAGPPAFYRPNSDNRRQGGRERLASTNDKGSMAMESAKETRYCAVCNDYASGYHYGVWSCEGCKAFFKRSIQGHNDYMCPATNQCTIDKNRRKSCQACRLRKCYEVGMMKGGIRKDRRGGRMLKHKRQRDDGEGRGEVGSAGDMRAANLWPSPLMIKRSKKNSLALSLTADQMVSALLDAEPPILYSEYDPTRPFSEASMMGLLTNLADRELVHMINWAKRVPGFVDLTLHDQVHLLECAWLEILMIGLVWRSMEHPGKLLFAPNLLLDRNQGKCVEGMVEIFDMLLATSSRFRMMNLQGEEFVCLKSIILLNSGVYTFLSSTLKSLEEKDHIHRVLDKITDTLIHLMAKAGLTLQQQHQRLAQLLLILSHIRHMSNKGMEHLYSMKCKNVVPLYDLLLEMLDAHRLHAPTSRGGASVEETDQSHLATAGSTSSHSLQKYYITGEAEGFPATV

Estrogen receptor [3] = target: T2, Estrogen receptor (Homo sapiens, UniProt P03372); experiment: Induction of ERalpha degradation in human MCF7 cells by immunofluorescence assay; format: cell-based
T2 sequence (P03372 whole entry): T1 sequence (whole entry)

[4] = Kinetic solubility of compound at pH 7.4; format: physicochemical; conditions: buffer, read-out: Kinetic_solubility
[5] = Clearance in rat at 1 mg/kg, iv; format: ADME, organism-based; conditions: in vivo
[6] = Oral bioavailability in rat; format: ADME, organism-based; conditions: in vivo
in vitro = conditions: dog, MDCK
[7] = Volume of distribution at steady state in rat; format: ADME; conditions: in vivo, read-out: Vdss
[8] = Half life in rat; format: ADME; conditions: in vivo
[9] = Apparent permeability across basolateral to apical side in MDCK cells; format: ADME, cell-based, Canis lupus familiaris; conditions: dog
MCF7 [10] = experiment: Antiproliferation activity against human MCF7 cells assessed as reduction in cell viability measured by CellTiter-Glo luminescent assay; format: functional, cell-based
Estrogen receptor [11] = target: T2, Estrogen receptor; experiment: Displacement of fluorescein PGC1alpha from recombinant ERalpha (unknown origin)
[12] = system: Estrogen receptor (Homo sapiens), P03372 [Y537S]; experiment: Induction of ERalpha Y537S mutant degradation expressed in human MCF7 cells assessed as maximum degradation by immunofluorescence assay relative to control; format: cell-based
[13] = Protein binding in human plasma assessed as unbound fraction; format: ADME, cell-free
[14] = AUC in mouse at 10 mg/kg, po; format: ADME, organism-based; parameters: dose 10 mg/kg; conditions: in vivo
Estrogen receptor [15] = target: Estrogen receptor (Homo sapiens, UniProt P03372, Y537S); experiment: Induction of ERalpha Y537S mutant degradation expressed in human MCF7 cells by immunofluorescence assay; format: cell-based
[16] = AUC in mouse at 100 mg/kg, po; format: ADME, organism-based; parameters: dose 100 mg/kg; conditions: in vivo
MCF7 [17] = experiment: Antitumor activity against human MCF7 cells xenografted in po dosed mouse assessed as tumor growth inhibition measured after 4 weeks; format: functional, organism-based; conditions: dose 10-100 mg/kg
[18] = Toxicity in mouse xenografted with human MCF7 cells assessed as body weight loss at 1 to 100 mg/kg, po administered for 4 weeks; format: organism-based; conditions: in vivo, 672 h, dose 1-100 mg/kg
MCF7 [19] = experiment: Antitumor activity against human MCF7 cells xenografted in mouse assessed as tumor growth inhibition at 100 mg/kg, po measured after 4 weeks; format: functional, organism-based
MCF7 [20] = experiment: Antitumor activity against human MCF7 cells xenografted in mouse assessed as tumor growth inhibition at 60 mg/kg, po QD for 4 weeks; format: functional, organism-based

Sequence of Estrogen receptor (Homo sapiens), P03372 [Y537S] (P03372 whole entry Y537S): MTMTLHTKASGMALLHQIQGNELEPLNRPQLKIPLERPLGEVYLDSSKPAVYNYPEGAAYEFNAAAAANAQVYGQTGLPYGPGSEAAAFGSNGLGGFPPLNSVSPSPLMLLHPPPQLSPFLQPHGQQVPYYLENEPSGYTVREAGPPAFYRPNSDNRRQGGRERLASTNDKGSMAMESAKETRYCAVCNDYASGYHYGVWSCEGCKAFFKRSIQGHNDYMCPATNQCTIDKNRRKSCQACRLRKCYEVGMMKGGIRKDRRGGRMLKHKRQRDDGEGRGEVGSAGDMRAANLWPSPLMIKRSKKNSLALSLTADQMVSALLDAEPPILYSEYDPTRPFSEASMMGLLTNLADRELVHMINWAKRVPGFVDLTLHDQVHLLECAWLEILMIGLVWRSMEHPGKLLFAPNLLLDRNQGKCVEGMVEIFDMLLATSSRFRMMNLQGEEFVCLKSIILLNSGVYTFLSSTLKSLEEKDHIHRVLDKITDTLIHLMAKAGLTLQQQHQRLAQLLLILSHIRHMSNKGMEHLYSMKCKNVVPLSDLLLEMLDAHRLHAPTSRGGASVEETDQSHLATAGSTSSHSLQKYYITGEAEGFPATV
Sequence of Estrogen receptor (Homo sapiens, UniProt P03372, Y537S) (P03372 whole entry Y537S): as above

| Structure (SMILES) | logD [1] | %max [2] [%] | DC50 (Estrogen receptor [3]) [nM] | solubility kinetic [4] [µM] | also measured |
| --- | --- | --- | --- | --- | --- |
| C[C@@H]1Cc2c([nH]c3ccccc23)[C@@H](c2c(F)cc(OCCN3CC(CF)C3)cc2F)N1C(=O)C1CC1 | 2.1 | 89 | 3 | 181 (≈ 90.1 µg/mL) |  |
| C[C@@H]1Cc2c([nH]c3ccccc23)[C@@H](c2c(F)cc(OCCN3CC(CF)C3)cc2F)N1C(=O)C(C)(C)F | 3.2 | 94 |  | 95 (≈ 49.2 µg/mL) | clearance [5]: 120 mL/min/kg; bioavailability [6]: 33%; Papp A→B (in vitro): 1 ×10⁻⁶ cm/s; Vd [7]: 32 L/kg; half-life [8]: 3.1 h; Papp B→A [9]: 1 ×10⁻⁶ cm/s |
| C[C@@H]1Cc2c([nH]c3ccccc23)[C@@H](c2c(F)cc(OCCN3CC(CF)C3)cc2F)N1C(=O)C1CNC1 | -0.2 |  | > 10 | 96 (≈ 49.2 µg/mL) |  |
| C[C@@H]1Cc2c([nH]c3ccccc23)[C@@H](c2ccc(OCCN3CC(CF)C3)cc2F)N1S(C)(=O)=O | 2.5 | 93 | 0.19 | 135 (≈ 66.1 µg/mL) | IC50 (MCF7 [10]): 0.4 nM; clearance [5]: 10.2 mL/min/kg; bioavailability [6]: 48%; IC50 (Estrogen receptor [11]): 17 nM; Papp A→B (in vitro): 4 ×10⁻⁶ cm/s; Vd [7]: 9.6 L/kg; half-life [8]: 11 h; Papp B→A [9]: 5 ×10⁻⁶ cm/s |
| C[C@@H]1Cc2c([nH]c3ccccc23)[C@@H](c2c(F)cc(OCCN3CC(CF)C3)cc2F)N1S(C)(=O)=O | 2.3 | 93 |  | 113 (≈ 57.4 µg/mL) | IC50 (MCF7 [10]): 0.5 nM; clearance [5]: 27.5 mL/min/kg; bioavailability [6]: 47%; Papp A→B (in vitro): 4 ×10⁻⁶ cm/s; Vd [7]: 17.3 L/kg; half-life [8]: 7 h; %max [12]: 86%; Papp B→A [9]: 4 ×10⁻⁶ cm/s |
| C[C@@H]1Cc2c([nH]c3ccccc23)[C@@H](c2c(F)cc(OCCN3CC(CF)C3)cc2F)N1C(=O)C(C)(F)F |  | 95 | 0.15 | 30 (≈ 15.6 µg/mL) |  |
| CC(=O)N1[C@H](c2c(F)cc(OCCN3CC(CF)C3)cc2F)c2[nH]c3ccccc3c2C[C@H]1C | 2.5 | 91 |  | 53 (≈ 25 µg/mL) |  |
| C[C@@H]1Cc2c([nH]c3ccccc23)[C@@H](c2c(F)cc(OCCN3CC(CF)C3)cc2F)N1C(=O)C1COC1 | 1.8 | 92 | 4 | 117 (≈ 60.1 µg/mL) |  |
| C[C@@H]1Cc2c([nH]c3ccccc23)[C@@H](c2c(F)cc(OC3CN(CCCF)C3)cc2F)N1CC(C)(C)F |  | 100 |  | < 1 | fraction unbound [13]: < 0.001; Papp A→B (in vitro): 0.4 ×10⁻⁶ cm/s; Papp B→A [9]: 0.2 ×10⁻⁶ cm/s |
| C[C@@H]1Cc2c([nH]c3ccccc23)[C@@H](c2c(F)cc(OC3CN(CCCF)C3)cc2F)N1C(=O)C(C)(C)F | 4 | 100 | 0.42 | < 1 |  |
| C[C@@H]1Cc2c([nH]c3ccccc23)[C@@H](c2ccc(OCCN3CC(CF)C3)cc2)N1S(C)(=O)=O | 2.2 | 93 | 0.18 | 118 (≈ 55.6 µg/mL) | IC50 (MCF7 [10]): 0.5 nM; AUC [14]: 1.8 µM·h; clearance [5]: 7 mL/min/kg; bioavailability [6]: 32%; IC50 (Estrogen receptor [11]): 11 nM; Papp A→B (in vitro): 5 ×10⁻⁶ cm/s; DC50 (Estrogen receptor [15]): 1.2 nM; AUC [16]: 28.9 µM·h; Activity (MCF7 [17]): Dose-Dependent Effect; Vd [7]: 7.7 L/kg; half-life [8]: 13 h; %max [12]: 82%; Activity [18]: Non-Toxic; Papp B→A [9]: 6 ×10⁻⁶ cm/s; Activity (MCF7 [19]): Active |
| C[C@@H]1Cc2c([nH]c3ccccc23)[C@@H](c2c(F)cc(OC3CN(CCCF)C3)cc2F)N1C(=O)C1(F)CCC1 | 4.3 | 96 | 1.2 | < 1 |  |
| C[C@@H]1Cc2c([nH]c3ccccc23)[C@@H](c2c(F)cc(OCCN3CC(CF)C3)cc2F)N1C(=O)[C@@H](C)CF | 2.5 | 98 | 0.34 | 115 (≈ 59.5 µg/mL) |  |
| C[C@@H]1Cc2c([nH]c3ccccc23)[C@@H](c2c(F)cc(OC3CN(CCCF)C3)cc2F)N1C(=O)C1(F)CC1 | 4.1 | 95 | 0.32 | 13 (≈ 6.7 µg/mL) |  |
| CC(CO)C(=O)N1[C@H](c2c(F)cc(OCCN3CC(CF)C3)cc2F)c2[nH]c3ccccc3c2C[C@H]1C (some centres undefined) | 1.8 | 91 | 4 | 156 (≈ 80.4 µg/mL) |  |
| CC/C(=C(\c1ccccc1)c1ccc(OCCN(C)C)cc1)c1ccccc1 |  |  |  |  | Activity (MCF7 [20]): Active |
| CC(C)C(=O)N1[C@H](c2c(F)cc(OCCN3CC(CF)C3)cc2F)c2[nH]c3ccccc3c2C[C@H]1C |  | 95 | 0.11 | 135 (≈ 67.4 µg/mL) |  |
| C[C@@H]1Cc2c([nH]c3ccccc23)[C@@H](c2c(F)cc(OCCN3CC(CF)C3)cc2F)N1C(=O)C(C)(C)C | 3.3 | 90 | 0.49 | 92 (≈ 47.3 µg/mL) |  |
| C[C@@H]1Cc2c([nH]c3ccccc23)[C@@H](c2c(F)cc(OCCN3CC(CF)C3)cc2F)N1C(=O)CC1CC1 | 3.1 | 95 | 5 | 111 (≈ 56.8 µg/mL) |  |
| C[C@H](CF)C(=O)N1[C@H](c2c(F)cc(OCCN3CC(CF)C3)cc2F)c2[nH]c3ccccc3c2C[C@H]1C | 2.5 | 96 | 0.4 | 102 (≈ 52.8 µg/mL) |  |
